Results taken from the OPERA property sets (Mansouri et al. 2018).

Row | logP | Structure (SMILES)
1 | 3.96 | CCCCCCCCn1nnnc1Oc1ccc(NC(=O)N(C)C)cc1
2 | 2.72 | Cc1ccccc1C1OCC2ON=C(c3ccccc3)C2CO1 (stereo unspecified)
3 | 1.87 | CNC(=O)N(C)C(=O)Nc1cc(S(=O)(=O)C(C)C)ccc1F
4 | 1.7 | CN(C)C(=O)Nc1ccc(Oc2nnnn2Cc2ccccc2)cc1
5 | 1.45 | CC(C)n1nnc(Oc2ccc(NC(=O)N(C)C)cc2)n1
6 | 2.08 | CN(C)C(=O)Nc1ccc(Oc2nnn(C(C)(C)C)n2)cc1
7 | 2.35 | Fc1ccccc1C1OCC2ON=C(c3ccccc3)C2CO1 (stereo unspecified)
8 | 1.1 | CCn1nnc(Oc2ccc(NC(=O)N(C)C)cc2)n1
9 | 1.82 | CNC(=O)N(C)C(=O)Nc1cc(C(C)=O)ccc1F
10 | 4.46 | CCC(CC)c1ccc(F)c(NC(=O)N(C)C(=O)NC)c1
11 | 1.65 | C=CCn1nnc(Oc2ccc(NC(=O)N(C)C)cc2)n1
12 | 2.28 | CNC(=O)N(C)C(=O)Nc1cc(C(=O)OC)ccc1F
13 | 2.25 | CN(C)C(=O)Nc1ccc(Oc2nnnn2C(C)(C)C)c(Cl)c1
14 | 2.14 | CNC(=O)N(C)C(=O)Nc1cc(OC)ccc1F
15 | 0.28 | CN(C)C(=O)Nc1ccc(Oc2nnn(CCC#N)n2)cc1
16 | 2.67 | CN(C)C(=O)Nc1ccc(Oc2nnn(C3CCCCC3)n2)cc1
17 | 3.53 | CNC(=O)N(C)C(=O)Nc1cc(C(C)C)ccc1F
18 | 3.78 | CNC(=O)N(C)C(=O)Nc1cc(-c2ccccc2)ccc1F

Row | logP | Structure (SMILES)
19 | 0.63 | CN(C)C(=O)Nc1ccc(Oc2nnn(C)n2)cc1
20 | 2.3 | CNC(=O)N(C)C(=O)Nc1cc([N+](=O)[O-])ccc1F
21 | 3.58 | CNC(=O)N(C)C(=O)Nc1cc(I)ccc1F
22 | 4.58 | CNC(=O)N(C)C(=O)Nc1cc(C2CCCCC2)ccc1F
23 | 2.4 | CNC(=O)N(C)C(=O)Nc1cc(F)ccc1F
24 | 1.5 | CCn1nnnc1Oc1ccc(NC(=O)N(C)C)cc1Cl
25 | 3.08 | CNC(=O)N(C)C(=O)Nc1cc(OC(C)C)ccc1F
26 | 0.7 | CCOC(=O)Cn1nnnc1Oc1ccc(NC(=O)N(C)C)cc1
27 | 4.4 | CCCCCCCCn1nnc(Oc2ccc(NC(=O)N(C)C)cc2)n1
28 | 1 | C#CCn1nnnc1Oc1ccc(NC(=O)N(C)C)cc1
29 | 3.23 | CCc1ccc(F)c(NC(=O)N(C)C(=O)NC)c1
30 | 3.9 | CNC(=O)N(C)C(=O)Nc1cc(Cc2ccccc2)ccc1F
31 | 1.65 | CN(C)C(=O)Nc1ccc(Oc2nnnn2C(C)(C)C)cc1
32 | 1.65 | C#CCn1nnc(Oc2ccc(NC(=O)N(C)C)cc2)n1
33 | 2.12 | CNC(=O)N(C)C(=O)Nc1ccccc1F
34 | 2.25 | CN(C)C(=O)Nc1ccc(Oc2nnn(Cc3ccccc3)n2)cc1
35 | 3.42 | c1ccc(C2=NOC3COC(c4ccccc4)OCC23)cc1 (stereo unspecified)
36 | 3.96 | CNC(=O)N(C)C(=O)Nc1cc(C(C)(C)C)ccc1F
